Test system: patients with relapsed/refractory multiple myeloma (RRMM)
Assay: POM+LoDEX vs. HiDEX in RRMM: analysis of patients with moderate renal impairment
Type: in vivo, human
Description: Randomization was 2:1 to POM 4 mg (Day 1 to Day 21)+DEX 40 mg (20 mg for patients aged >75 y) qw; or DEX 40 mg (20 mg for patients aged >75 y) (Day 1-Day 4, Day 9-Day 12, and Day 17-Day 20) in a 28-D cycle. Treatment continued until PD or unacceptable adverse event (AE). The primary endpoint was progression-free survival (PFS). Secondary endpoints included overall survival (OS) and AEs. This analysis examined patients with or without moderate RI (CrCl<60 vs.≧60 mL/min).

For C[C@@H]1C[C@H]2[C@@H]3CCC4=CC(=O)C=C[C@]4(C)[C@@]3(F)[C@@H](O)C[C@]2(C)[C@@]1(O)C(=O)CO [HiDEX, (8S,9R,10S,11S,13S,14S,16R,17R)-9-fluoro-11,17-dihydroxy-17-(2-hydroxyacetyl)-10,13,16-trimethyl-6,7,8,9,10,11,12,13,14,15,16,17-dodecahydro-3H-cyclopenta[a]phenanthren-3-one], the “Median OS (mo)” value (CrCl <60 mL/min (moderate RI)) was 4.6 mo, the “Median PFS (mo)” value (CrCl <60 mL/min (moderate RI)) was 1.6 mo and the “Median OS (mo)” value (CrCl ≧60 mL/min) was 9.2 mo. The “Median PFS (mo)” value (CrCl ≧60 mL/min) was 1.8 mo, the “Discontinuation due to AE” value (moderate RI) was 5% and the “Gr 3/4 AE: anemia” value (moderate RI) was 34%. For the same compound, the “Gr 3/4 AE: infection” value (moderate RI) was 24%, the “Gr 3/4 AE: neutropenia” value (moderate RI) was 15% and the “Discontinuation due to AE” value (no moderate RI) was 7%. For the same compound, the “Gr 3/4 AE: anemia” value (normal renal function) was 26%, the “Gr 3/4 AE: infection” value (normal renal function) was 23% and the “Gr 3/4 AE: neutropenia” value (normal renal function) was 15%.

— US20150297579A1, “TREATMENT OF CANCER WITH POMALIDOMIDE IN A RENALLY IMPAIRED SUBJECT” (priority 2012, published 2015)
